Measured values: publication PMC8087116 (European journal of pharmaceutical sciences : official …, 2017)

Key:
CCRF-CEM = test: NCI-60 screening, leukemia CCRF-CEM; format: cell-based, human
MDA-MB-468 = test: NCI-60 screening, breast MDA-MB-468; format: cell-based, human
COLO-205 = test: NCI-60 dose-response, colon COLO-205; format: cell-based, human; details: COLO-205 colon cancer cell line, five-concentration dose-response
SW-620 = test: NCI-60 dose-response, colon SW-620; format: cell-based, human; details: SW-620 colon cancer cell line, five-concentration dose-response
SR cell line = test: NCI-60 dose-response, leukemia SR; format: cell-based, human; details: five-concentration dose-response
MDA-MB-231/ATCC = test: NCI-60 dose-response, breast MDA-MB-231/ATCC; format: cell-based, human; details: MDA-MB-231/ATCC breast cancer cell line, five-concentration dose-response
LOX IMVI = test: NCI-60 dose-response, melanoma LOX IMVI; format: cell-based, human; details: LOX IMVI melanoma cell line, five-concentration dose-response
MALME-3 M = test: NCI-60 dose-response, melanoma MALME-3 M; format: cell-based, human; details: MALME-3 M melanoma cell line, five-concentration dose-response
M14 = test: NCI-60 dose-response, melanoma M14; format: cell-based, human; details: M14 melanoma cell line, five-concentration dose-response
SK-MEL-5 = test: NCI-60 dose-response, melanoma SK-MEL-5; format: cell-based, human; details: SK-MEL-5 melanoma cell line, five-concentration dose-response
[1] = tested on: NCI-60 human tumor cell lines; details: for Inhibition against one or more cell lines: single dose 10 μM
HL-60-TB = test: NCI-60 screening, leukemia HL-60-TB; format: cell-based, human
HOP-62 = test: NCI-60 screening, NSCL HOP-62; format: cell-based, human
NCI-H23 = test: NCI-60 screening, NSCL NCI-H23; format: cell-based, human
MOLT-4 = test: NCI-60 screening, leukemia MOLT-4; format: cell-based, human
HOP-92 = test: NCI-60 screening, NSCL HOP-92; format: cell-based, human
PC-3 = test: NCI-60 screening, prostate PC-3; format: cell-based, human
RPMI-8226 = test: NCI-60 screening, leukemia RPMI-8226; format: cell-based, human

## COC(=O)[C@@H](C)CNS(=O)(=O)N(c1cc(C(F)(F)F)cc(C(F)(F)F)c1)C1CCN(Cc2ccc(F)cc2)CC1 [Compound 26]
CCRF-CEM; CCRF-CEM leukemia cell line, five-concentration dose-response
  GI50: 12.8 µM
MDA-MB-468; MDA-MB-468 breast cancer cell line, five-concentration dose-response
  GI50: 3.25 µM
COLO-205
  GI50: 1.88 µM
SW-620
  GI50: 11.1 µM
SR cell line
  GI50: 3.18 µM
MDA-MB-231/ATCC
  GI50: 12.7 µM
LOX IMVI
  GI50: 8.1 µM
MALME-3 M
  GI50: 6.89 µM
M14
  GI50: 3.75 µM
SK-MEL-5
  GI50: 3.19 µM
[1]
  Cytotoxicity as indicated by LC50 values, words: not cytotoxic for most of the cell lines
[1]; all remaining subpanel cell lines of NCI-60
  GI50: ≤ 21 µM
[1]; dose-response, NCI-60 panel
  TGI (total growth inhibition, cytostatic activity), words: total growth inhibition of most of the cell lines at moderate concentrations

## COC(=O)[C@H](NS(=O)(=O)N(c1ccc(F)cc1)C1CCN(Cc2ccc(F)cc2)CC1)C(C)C [Compound 37]
HL-60-TB
  Inhibition of sensitive tumor cell lines at 10 μM conc.: Leukemia: HL-60-TB (60%)
[1]
  Inhibition against one or more cell lines: > 50%

## COC(=O)[C@H](NS(=O)(=O)N(c1cccc(F)c1)C1CCN(Cc2ccc(F)cc2)CC1)C(C)C [Compound 18]
HL-60-TB
  Inhibition of sensitive tumor cell lines at 10 μM conc.: Leukemia: HL-60-TB (56%)
[1]
  Inhibition against one or more cell lines: > 50%

## COC(=O)[C@@H](NS(=O)(=O)N(c1ccc(F)cc1)C1CCN(C(=O)c2ccc(F)cc2)CC1)C(C)C [Compound 36]
HL-60-TB
  Inhibition of sensitive tumor cell lines at 10 μM conc.: Leukemia: HL-60-TB (57%)
[1]
  Inhibition against one or more cell lines: > 50%

## COC(=O)[C@@H](OC(=O)NS(=O)(=O)N(c1ccc(F)cc1)C1CCN(Cc2ccc(F)cc2)CC1)C(C)C [Compound 39]
[1]
  Inhibition against one or more cell lines: > 50%

## CC(C)[C@@H](NS(=O)(=O)N(c1cccc(F)c1)C1CCN(Cc2ccc(O)cc2)CC1)C(=O)O [Compound 19]
HOP-62
  Inhibition of sensitive tumor cell lines at 10 μM conc.: 88%
NCI-H23
  Inhibition of sensitive tumor cell lines at 10 μM conc.: 58%
[1]
  Inhibition against one or more cell lines: > 50%

## COC(=O)[C@@H](CC(C)C)NS(=O)(=O)N(c1cccc(F)c1)C1CCN(Cc2ccc(C(F)(F)F)cc2)CC1 [Compound 25]
MOLT-4
  Inhibition of sensitive tumor cell lines at 10 μM conc.: 56%
HOP-92
  Inhibition of sensitive tumor cell lines at 10 μM conc.: 60%
PC-3
  Inhibition of sensitive tumor cell lines at 10 μM conc.: 50%
[1]
  Inhibition against one or more cell lines: > 50%

## O=S(=O)(c1ccc(Br)cc1)N(c1cccc(F)c1)C1CCN(Cc2ccc(F)cc2)CC1 [Compound 49]
CCRF-CEM; 10 μM, Leukemia CCRF-CEM
  Inhibition of sensitive tumor cell lines at 10 μM conc.: 51%
RPMI-8226
  Inhibition of sensitive tumor cell lines at 10 μM conc.: 65%
MDA-MB-468; 10 μM, Breast MDA-MB-468
  Inhibition of sensitive tumor cell lines at 10 μM conc.: 53%
[1]
  Inhibition against one or more cell lines: > 50%
